From US20230167070A1, “MODULATORS OF TREX1” (Constellation Pharmaceuticals, Inc., priority 2020, published 2023)

Assays:
full length human TREX1 = target: T1, full length human TREX1 (Homo sapiens, UniProt Q9NSU2); assay: TREX1 Biochemical Assay (fluorescence, dsDNA substrate degradation); conditions: 150 pM TREX1, 60 nM dsDNA substrate, 25 minutes at room temperature
T1 construct: N-terminally His-Tev tagged full length human TREX1; made in house; host or cells: E. coli
T1 sequence (Q9NSU2 1-314): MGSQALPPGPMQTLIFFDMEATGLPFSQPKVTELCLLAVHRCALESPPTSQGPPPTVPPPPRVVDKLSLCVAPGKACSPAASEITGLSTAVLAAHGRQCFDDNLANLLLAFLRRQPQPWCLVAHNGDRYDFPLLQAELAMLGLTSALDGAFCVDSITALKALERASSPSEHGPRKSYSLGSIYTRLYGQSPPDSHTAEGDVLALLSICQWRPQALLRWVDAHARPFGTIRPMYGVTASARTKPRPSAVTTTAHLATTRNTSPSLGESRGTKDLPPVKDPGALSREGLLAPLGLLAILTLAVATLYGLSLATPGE
Experimental: Degradation of the dsDNA liberates free fluorophore to produce a fluorescent signal. Specifically, 7.5 μL of N-terminally His-Tev tagged full length human TREX1 (expressed in E. coli and purified in house) in reaction buffer (50 mM Tris (pH 7.4), 150 mM NaCl, 2 mM DTT, 0.1 mg/mL BSA, 0.01% (v/v) Tween-20 and 100 mM MgCl2) was added to a 384-well Black ProxiPlate Plus (Perkin Elmer) which already contained compound (150 nL) at varying concentrations as a 10 point dose-response in DMSO. To this was added 7.5 μL of dsDNA substrate (Strand A: 5′ TEX615/GCT AGG CAG 3′; Strand B: 5′ CTG CCT AGC/IAbRQSp (Integrated DNA Technologies)) in reaction buffer. Final concentrations were 150 pM TREX1, 60 nM dsDNA substrate in reaction buffer with 1.0% DMSO (v/v). After 25 minutes at room temperature, reactions were quenched by the addition of 5 μL of stop buffer (same as reaction buffer plus 200 mM EDTA). Final concentrations in the quenched reaction were 112.5 pM TREX1, 45 nM DNA and 50 mM EDTA in a volume of 20 μL. After a 5-minute incubation at room temperature, plates were read in a laser sourced Envision (Perkin-Elmer), measuring fluorescence at 615 nm following excitation w/570 nm light. IC50 values were calculated by comparing the measured fluorescence at 615 nm ratio relative to control wells pre-quenched w/stop buffer (100% inhibition) and no inhibitor (0% inhibition) controls as using non-linear least square four parameter fits and either Genedata or GraphPad Prism (GraphPad Software, Inc.).

[1] = target: T2, human TREX2 (residues M44-A279) (Homo sapiens, UniProt Q9BQ50); assay: TREX2 Biochemical Assay (fluorescence, dsDNA substrate degradation); conditions: 2.5 nM TREX2, 60 nM dsDNA substrate, 25 minutes at room temperature
T2 construct: human TREX2 (residues M44-A279, expressed in E. coli); made in house; host or cells: E. coli
T2 sequence (Q9BQ50 44-279 isoform Q9BQ50-1): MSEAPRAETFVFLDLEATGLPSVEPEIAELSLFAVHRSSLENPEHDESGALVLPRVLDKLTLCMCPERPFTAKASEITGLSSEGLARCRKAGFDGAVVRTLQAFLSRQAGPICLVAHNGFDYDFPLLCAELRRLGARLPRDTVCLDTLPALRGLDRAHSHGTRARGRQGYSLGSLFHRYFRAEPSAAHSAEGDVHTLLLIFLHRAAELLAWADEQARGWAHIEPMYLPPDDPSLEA
Experimental: Degradation of the dsDNA liberates free fluorophore to produce a fluorescent signal. Specifically, 7.5 μL of N-terminally His-Tev tagged human TREX2 (residues M44-A279, expressed in E. coli and purified in house) in reaction buffer (50 mM Tris (pH 7.4), 150 mM NaCl, 2 mM DTT, 0.1 mg/mL BSA, 0.01% (v/v) Tween-20 and 100 mM MgCl2) was added to a 384-well Black ProxiPlate Plus (Perkin Elmer) which already contained compound (150 nL) at varying concentrations as a 10 point dose-response in DMSO. To this was added 7.5 μL of dsDNA substrate (Strand A: 5′ TEX615/GCT AGG CAG 3′; Strand B: 5′ CTG CCT AGC/IAbRQSp (IDT)) in reaction buffer. Final concentrations were 2.5 nM TREX2, 60 nM dsDNA substrate in reaction buffer with 1.0% DMSO (v/v). After 25 minutes at room temperature, reactions were quenched by the addition of 5 μL of stop buffer (same as reaction buffer plus 200 mM EDTA). Final concentrations in the quenched reaction mixture were […] TREX2, 45 nM DNA and 50 mM EDTA in a volume of 20 μL. After a 5-minute incubation at room temperature, plates were read in a laser sourced Envision (Perkin-Elmer), measuring fluorescence at 615 nm following excitation w/570 nm light. IC50 values were calculated by comparing the measured fluorescence at 615 nm ratio relative to control wells pre-quenched w/stop buffer (100% inhibition) and no inhibitor (0% inhibition) controls as using non-linear least square four parameter fits and either Genedata or GraphPad Prism (GraphPad Software, Inc.).

Row | SMILES | IC50 (full length human TREX1) [nM] | IC50 [1] [µM]
1 | CN(c1nc(C(=O)Nc2cccc(C(F)(F)F)c2)c(O)c(=O)n1C)C(c1ccccc1)c1ccccc1 [Example 27, 2-(benzhydryl(methyl)amino)-5-hydroxy-1-methyl-6-oxo-N-(3-(trifluoromethyl)phenyl)-1,6-dihydropyrimidine-4-carboxamide] | > 10000 | 10 to 100
2 | CN(c1nc(C(=O)Nc2ccnn2C)c(O)c(=O)n1C)C(c1ccccc1)c1ccccc1 [Example 35, 2-(benzhydryl(methyl)amino)-5-hydroxy-1-methyl-N-(1-methyl-1H-pyrazol-5-yl)-6-oxo-1,6-dihydropyrimidine-4-carboxamide] | 1000 to 10000 | 10 to 100
3 | CN(c1nc(C(=O)Nc2ccccn2)c(O)c(=O)n1C)C(c1ccccc1)c1ccccc1 [Example 25, 2-(benzhydryl(methyl)amino)-5-hydroxy-1-methyl-6-oxo-N-(pyridin-2-yl)-1,6-dihydropyrimidine-4-carboxamide] | 100 to 1000 | < 1
4 | CN(c1nc(C(=O)Nc2cncs2)c(O)c(=O)n1C)C(c1ccccc1)c1ccccc1 [Example 31, 2-(benzhydryl(methyl)amino)-5-hydroxy-1-methyl-6-oxo-N-(thiazol-5-yl)-1,6-dihydropyrimidine-4-carboxamide] | 100 to 1000 | 1 to 10
5 | Cc1noc(C)c1NC(=O)c1nc(N(C)C(c2ccccc2)c2ccccc2)n(C)c(=O)c1O [Example 33, 2-(benzhydryl(methyl)amino)-N-(3,5-dimethylisoxazol-4-yl)-5-hydroxy-1-methyl-6-oxo-1,6-dihydropyrimidine-4-carboxamide] | 100 to 1000 | 10 to 100
6 | CN(c1nc(C(=O)NCC2CC2)c(O)c(=O)n1C)C(c1ccccc1)c1ccccc1 [Example 14, 2-(benzhydryl(methyl)amino)-N-(cyclopropylmethyl)-5-hydroxy-1-methyl-6-oxo-1,6-dihydropyrimidine-4-carboxamide] | 100 to 1000 | 1 to 10
7 | CN(c1nc(C(=O)NCCC(F)(F)F)c(O)c(=O)n1C)C(c1ccccc1)c1ccccc1 [Example 13, 2-(benzhydryl(methyl)amino)-5-hydroxy-1-methyl-6-oxo-N-(3,3,3-trifluoropropyl)-1,6-dihydropyrimidine-4-carboxamide] | 100 to 1000 | 10 to 100
8 | CN(c1nc(C(=O)Nc2cc(F)cc(F)c2)c(O)c(=O)n1C)C(c1ccccc1)c1ccccc1 [Example 21, 2-(benzhydryl(methyl)amino)-N-(3,5-difluorophenyl)-5-hydroxy-1-methyl-6-oxo-1,6-dihydropyrimidine-4-carboxamide] | 100 to 1000 | < 1
9 | CN(c1nc(C(=O)Nc2ccc(F)cc2)c(O)c(=O)n1C)[C@@H](c1ccccc1)c1ccccc1Cl [Example 30, (S)-2-(((2-chlorophenyl)(phenyl)methyl)(methyl)amino)-N-(4-fluorophenyl)-5-hydroxy-1-methyl-6-oxo-1,6-dihydropyrimidine-4-carboxamide] | 100 to 1000 | < 1
10 | CN(c1nc(C(=O)N[C@@H]2CCOC2)c(O)c(=O)n1C)C(c1ccccc1)c1ccccc1 [Example 4, (R)-2-(benzhydryl(methyl)amino)-5-hydroxy-1-methyl-6-oxo-N-(tetrahydrofuran-3-yl)-1,6-dihydropyrimidine-4-carboxamide] | > 10000 | 10 to 100
11 | CN(c1nc(C(=O)NC2CC(F)(F)C2)c(O)c(=O)n1C)C(c1ccccc1)c1ccccc1 [Example 2, 2-(benzhydryl(methyl)amino)-N-(3,3-difluorocyclobutyl)-5-hydroxy-1-methyl-6-oxo-1,6-dihydropyrimidine-4-carboxamide] | 1000 to 10000 | 10 to 100
12 | C=C(C)CNC(=O)c1nc(N(C)C(c2ccccc2)c2ccccc2)n(C)c(=O)c1O [Example 5, 2-(benzhydryl(methyl)amino)-5-hydroxy-1-methyl-N-(2-methylallyl)-6-oxo-1,6-dihydropyrimidine-4-carboxamide] | 1000 to 10000 | 10 to 100
13 | CN(c1nc(C(=O)Nc2cnnn2C)c(O)c(=O)n1C)C(c1ccccc1)c1ccccc1 [Example 34, 2-(benzhydryl(methyl)amino)-5-hydroxy-1-methyl-N-(1-methyl-1H-1,2,3-triazol-5-yl)-6-oxo-1,6-dihydropyrimidine-4-carboxamide] | 1000 to 10000 | 1 to 10
14 | CN(c1nc(C(=O)Nc2ccon2)c(O)c(=O)n1C)C(c1ccccc1)c1ccccc1 [Example 39, 2-(benzhydryl(methyl)amino)-5-hydroxy-N-(isoxazol-3-yl)-1-methyl-6-oxo-1,6-dihydropyrimidine-4-carboxamide] | 100 to 1000 | 10 to 100
15 | COCCNC(=O)c1nc(N(C)C(c2ccccc2)c2ccccc2)n(C)c(=O)c1O [Example 11, 2-(benzhydryl(methyl)amino)-5-hydroxy-N-(2-methoxyethyl)-1-methyl-6-oxo-1,6-dihydropyrimidine-4-carboxamide] | > 10000 | 10 to 100
16 | C=CCNC(=O)c1nc(N(C)C(c2ccccc2)c2ccccc2)n(C)c(=O)c1O [Example 8, N-allyl-2-(benzhydryl(methyl)amino)-5-hydroxy-1-methyl-6-oxo-1,6-dihydropyrimidine-4-carboxamide] | 1000 to 10000 | 1 to 10
17 | CN(c1nc(C(=O)Nc2cc(F)ccn2)c(O)c(=O)n1C)C(c1ccccc1)c1ccccc1 [Example 23, 2-(benzhydryl(methyl)amino)-N-(4-fluoropyridin-2-yl)-5-hydroxy-1-methyl-6-oxo-1,6-dihydropyrimidine-4-carboxamide] | 1000 to 10000 | 1 to 10
18 | CN(c1nc(C(=O)NC2COC2)c(O)c(=O)n1C)C(c1ccccc1)c1ccccc1 [Example 9, 2-(benzhydryl(methyl)amino)-5-hydroxy-1-methyl-N-(oxetan-3-yl)-6-oxo-1,6-dihydropyrimidine-4-carboxamide] | > 10000 | 10 to 100
19 | CN(c1nc(C(=O)Nc2cncc(F)c2)c(O)c(=O)n1C)C(c1ccccc1)c1ccccc1 [Example 24, 2-(benzhydryl(methyl)amino)-N-(5-fluoropyridin-3-yl)-5-hydroxy-1-methyl-6-oxo-1,6-dihydropyrimidine-4-carboxamide] | 100 to 1000 | 1 to 10
